pIC50: −log10 of the molar value. Where two headings read alike, the source gives them in different places.
Test system: SJSA-1
Assay: Protocol B: SJSA-1 CellTiter-Glo cell viability
Settings: for IC50: read-out: SJSA1 IC50 (μM) (Protocol B), SJSA-1, Protocol B (CellTiter-Glo), 72 hrs
[1] = Homo sapiens, SJSA-1, 72 h, read-out: SJSA1 IC50 (Protocol B), SJSA-1 cells, CellTiter-Glo, 72 hrs

Description: Protocol B: SJSA-1 and SN40R2 Assays
The CellTiter-Glo® Luminescent Cell Viability Assay is a homogeneous method to determine the number of viable cells in culture based on quantitation of the ATP present, which signals the presence of metabolically active cells. […] 100 μl of CTG reagent (Promega #G7573) was added to all wells and luminescence was measured on the topcount. The EC50 values were determined from a sigmoidal 4 parameter curve fit using XLfit in conjunction with Activity Base (IDBS; Guildford, Surrey, UK).

Row | SMILES | pIC50 [1] | IC50 (Homo sapiens, SJSA-1, 72 h) | other results
1 | CO[C@]1(c2ccc(Cl)cc2)c2c(F)cc(C(C)(O)c3ccn(C)n3)cc2C(=O)N1Cc1ccc(Cl)cn1 (stereo partly drawn) [Example 190, (3R)-3-(4-Chlorophenyl)-2-[(5-chloropyridin-2-yl)methyl]-4-fluoro-6-[1-hydroxy-1-(1-methyl-1H-pyrazol-3-yl)ethyl]-3-methoxy-2,3-dihydro-1H-isoindol-1-one] | – | – | pIC50 (read-out: SJSA1 IC50 (Protocol B), SJSA-1 cells, CellTiter-Glo, 72 hrs): 5.30
2 | CN1CCN(CC(C)(O)c2cc(F)c3c(c2)C(=O)N(Cc2ccc(C#N)cn2)[C@@]3(OCC2(C#N)CC2)c2ccc(Cl)cc2)CC1 (stereo partly drawn) [Example 279, 6-{[(1R)-1-(4-chlorophenyl)-1-[(1-cyanocyclopropyl)methoxy]-7-fluoro-5-[2-hydroxy-1-(4-methylpiperazin-1-yl)propan-2-yl]-3-oxo-2,3-dihydro-1H-isoindol-2-yl]methyl}pyridine-3-carbonitrile] | 6.24 | – | –
3 | CCC(O)(c1cc(F)c2c(c1)C(=O)N(Cc1ccc(C#N)cn1)[C@@]2(OCC1(CO)CC1)c1ccc(Cl)cc1)c1cn(C)cn1 (stereo partly drawn) [Example 337, 6-{[(1R)-1-(4-chlorophenyl)-7-fluoro-5-[1-hydroxy-1-(1-methyl-1H-imidazol-4-yl)propyl]-1-{[1-(hydroxymethyl)cyclopropyl]methoxy}-3-oxo-2,3-dihydro-1H-isoindol-2-yl]methyl}pyridine-3-carbonitrile] | – | 0.058 µM | –
4 | Cn1cc(C(C)(O)c2cc(F)c3c(c2)C(=O)N(Cc2ncc(Cl)cn2)[C@@]3(OCC2(CO)CC2)c2ccc(Cl)cc2)cn1 (stereo partly drawn) [Example 349, (3R)-3-(4-chlorophenyl)-2-[(5-chloropyrimidin-2-yl)methyl]-4-fluoro-6-[1-hydroxy-1-(1-methyl-1H-pyrazol-4-yl)ethyl]-3-{[1-(hydroxymethyl)cyclopropyl]methoxy}-2,3-dihydro-1H-isoindol-1-one] | 7.55 | – | –
5 | Cn1cc(C(C)(O)c2cc(F)c3c(c2)C(=O)N(Cc2ccc(C#N)cn2)[C@@]3(O[C@H]2C[C@@H](O)C2)c2ccc(Cl)cc2)cn1 (stereo partly drawn) [Example 355, 6-{[1-(4-chlorophenyl)-7-fluoro-5-[1-hydroxy-1-(1-methyl-1H-pyrazol-4-yl)ethyl]-3-oxo-1-[cis-3-hydroxycyclobutoxy]-2,3-dihydro-1H-isoindol-2-yl]methyl}pyridine-3-carbonitrile] | 5.33 | – | –
6 | Cn1cc(C(O)(c2cc(F)c3c(c2)C(=O)N(Cc2ccc(C#N)cn2)[C@@]3(O[C@H]2CCOC2)c2ccc(Cl)cc2)C(F)(F)F)cn1 (stereo partly drawn) [Example 371, 6-{[(1R)-1-(4-chlorophenyl)-7-fluoro-3-oxo-1-[(3S)-oxolan-3-yloxy]-5-[2,2,2-trifluoro-1-hydroxy-1-(1-methyl-1H-pyrazol-4-yl)ethyl]-2,3-dihydro-1H-isoindol-2-yl]methyl}pyridine-3-carbonitrile] | – | 2.3 µM | –
7 | CC(O)(c1cc(F)c2c(c1)C(=O)N(Cc1ccc(Cl)cn1)[C@@]2(OCC1(O)CC1)c1ccc(Cl)cc1)c1ncccn1 (stereo partly drawn) [Example 396, (3R)-3-(4-chlorophenyl)-2-[(5-chloropyridin-2-yl)methyl]-4-fluoro-6-[1-hydroxy-1-(pyrimidin-2-yl)ethyl]-3-[(1-hydroxycyclopropyl)methoxy]-2,3-dihydro-1H-isoindol-1-one] | 6.55 | – | –
8 | CC[C@@](O)(c1cc(F)c2c(c1)C(=O)N(Cc1ncc(C#N)cn1)[C@@]2(O[C@H]1C[C@@H](O)C1)c1ccc(Cl)cc1)C1(F)CCOCC1 [Example 505, 2-{[(1R)-1-(4-chlorophenyl)-7-fluoro-5-[(1R)-1-(4-fluorooxan-4-yl)-1-hydroxypropyl]-3-oxo-1-[cis-3-hydroxycyclobutoxy]-2,3-dihydro-1H-isoindol-2-yl]methyl}pyrimidine-5-carbonitrile] | – | 0.027 µM | –
9 | CC[C@](O)(c1cc(F)c2c(c1)C(=O)N(Cc1ncc(C#N)cn1)[C@@]2(O[C@H]1C[C@@H](O)C1)c1ccc(Cl)cc1)C1(F)CCOCC1 [Example 506, 2-{[(1R)-1-(4-chlorophenyl)-7-fluoro-5-[(1S)-1-(4-fluorooxan-4-yl)-1-hydroxypropyl]-3-oxo-1-[cis-3-hydroxycyclobutoxy]-2,3-dihydro-1H-isoindol-2-yl]methyl}pyrimidine-5-carbonitrile] | – | 3.4 µM | –
